According to patent US12497515B2, “Fluorogenic pH-sensitive compounds and their methods of use” (LIFE TECHNOLOGIES CORPORATION, priority 2020, dated 2025):

Tests used:
[1] = pH response kinetics (ring opening, absorbance at 637 nm); assay type: physicochemical; settings: for pH response kinetics: stock in phosphate buffer pH 7.4 mixed with phosphate buffer pH 3.13, room temperature
Procedure: The kinetics of the ring opening of Compound A, Compound C, and Compound H were studied by measuring absorbance changes at 637 nm (absorption maxima of the ring-opening states) with UV-Vis spectroscopy. Stock solutions of the three dyes were prepared in pH 7.4 phosphate buffer with concentration of 1.8 mM. […] Stock solutions (10 μL) containing the dyes (1.8 mM) in phosphate buffer (pH 7.4) were diluted 300 times with phosphate buffer (pH 3.13) to a final concentration of […] at pH 3.13. The absorption changes were recorded at room temperature at 637 nm.

[2] = pKa of the free compound (pH profile of fluorescence intensity); assay type: physicochemical; settings: series of pH buffers
Procedure: (§1) FIG. 6 provides the pH profile of fluorescence intensity of Compound C at room temperature. Fluorescence was measured using 636 nm ex, 654 nm em, with 5 nm bandpass. Solutions were diluted to 5 uM with a series of pH buffers in triplicate in a 96-well clear-bottom black walled plate. Samples were measured on a Tecan Infinite M100 plate reader via top-read. RFU=relative fluorescence units.
as §1, with “FIG. 7” for “FIG. 6”, “Compound E” for “Compound C”, “with” for “with a series of”
Fluorescence was measured using 636 nm excitation wavelength (ex), 654 nm emission wavelength (em), with 5 nm bandpass filter. Solutions were diluted to 5 uM with a series of pH buffers (see Table 3) in triplicate in a 96-well clear-bottom black walled plate. Samples were measured on a Tecan Infinite M100 plate reader via top-read.
Fluorescence was measured using 636 nm ex, 654 nm em, with 5 nm bandpass. Solutions were diluted to 5 uM with pH buffers in triplicate in a 96-well clear-bottom black walled plate. Samples were measured on a Tecan Infinite M100 plate reader via top-read.

Jurkat cells [3] = experiment: Apoptosis control experiments (CYQUANT Direct, PRESTOBLUE HS, CELLEVENT Caspase green); assay type: cell-based; settings: 2 uM overnight
Procedure: In this study, Jurkat cells were grown in 0.1% DMSO vehicle control or 2 uM camptothecin overnight in normal cell culture conditions then harvested, counted, washed, labeled, and resuspended at matched total cell number at 2×10^6 cells per mL in complete culture medium and dispensed 100 uL (200,000 cells) per well (n=8 per measurement) before adding the indicated reagents for 1 hour. […] The apoptosis indicator CELLEVENT Caspase green (Thermo Fisher Scientific, Waltham, MA) was also added to the two samples matched in total cells per mL along with NUCBLUE Live (Thermo Fisher Scientific, Waltham, MA), and cells plated at 100,000 cells per well for HCA quantification on the […] CX5.

Jurkat cells [4] = experiment: Toxicity and turn-on response of labeled cells (PRESTOBLUE Cell Health Assay, Cy5 imaging); assay type: cell-based
Procedure: In this study, healthy Jurkat cells were grown and harvested in normal cell culture conditions, washed, counted, labeled and resuspended per product description in complete culture medium, and incubated overnight before testing for cell health and number with the PRESTOBLUE Cell Health Assay (Thermo Fisher Scientific, Waltham, MA). Cells with Compound C were, in parallel determinations, resuspended in the external reference pH buffer indicated and imaged on an EVOS M7000 for signal in the Cy5 channel from labeled cells at extracellular pH 4.5 (FIG. 42A, in red) and 7.5 (FIG. 42A, Inset). FIG. 42B is a graph showing control (left side) and compound C (right side).

RAW macrophages [5] = experiment: Efferocytosis of labeled apoptotic Jurkat cells; assay type: cell-based; settings: incubated with RAW macrophages 1-3 hours, 4× and 10×
Procedure: FIGS. 43-44 show the efferocytosis from apoptotic cells with Compound C. In this study, Jurkat cells were grown in 0.1% DMSO control or 2 uM camptothecin overnight in normal cell culture conditions then harvested, counted, washed, labeled and resuspended per product description in complete culture medium at matched density before adding to RAW macrophages for assays of efferocytosis, or the phagocytosis of apoptotic cells.

RAW macrophages [6] = experiment: Phagocytosis of CD4 opsonized Jurkat cells labeled with compound; assay type: cell-based; settings: incubated with RAW macrophages 1-3 hours, 10×
Procedure: In this study, Jurkat cells were grown as normal in complete medium then harvested, counted, washed, labeled, and resuspended per product description in complete culture medium before splitting into control and CD4 antibody treated samples. In brief, the cells were resuspended in PBS and labeled with either BSA control or CD4 antibody at 2 ug/mL for one hour at room temperature before washing 2× in PBS and adding to RAW macrophages.

With CC1(C)C=C(CS(=O)(=O)O)c2cc3c(c4c2N1CCC4)Oc1c(cc2c4c1CCCN4C(C)(C)C=C2CS(=O)(=O)O)C31c2c(Cl)ccc(Cl)c2C(=O)N1CCOCCOCCOCCOCCC(=O)Oc1c(F)c(F)cc(F)c1F [Compound H] the “absorbance as share of the expected maximum value (A=0.93)” value ([1]; after 6000 seconds (100 minutes) at pH 3.13) was 5%, the “absorbance at 637 nm” value ([1]; after 6000 seconds (100 minutes) at pH 3.13, 6.6 μM) was 0.05 and the pH response kinetics [1] was “slow”. It also gave a pKa [2] of 5.2.

With CC[C@@]1(O)C(=O)OCc2c1cc1n(c2=O)Cc2cc3ccccc3nc2-1 [Camptothecin, camptothecin] the “apoptosis, intracellular caspase activity (CELLEVENT Caspase green)” value (Jurkat cells [3]) was “substantial induction of apoptosis”, the “live cell number (CYQUANT Direct)” value (Jurkat cells [3]) was “fewer live cells” and the “overall vitality (PRESTOBLUE HS)” value (Jurkat cells [3]) was “decrease in overall vitality”.

For CC1(C)C=C(CS(=O)(=O)O)c2cc3c(c4c2N1CCC4)Oc1c(cc2c4c1CCCN4C(C)(C)C=C2CS(=O)(=O)O)C31c2c(Cl)ccc(Cl)c2C(=O)N1OCC(=O)Oc1c(F)c(F)cc(F)c1F [Compound F], the pKa [2] was 5.5.

CC1(C)C=C(CS(=O)(=O)O)c2cc3c(c4c2N1CCC4)Oc1c(cc2c4c1CCCN4C(C)(C)C=C2CS(=O)(=O)O)C31c2c(Cl)c(Cl)c(Cl)c(Cl)c2C(=O)N1OCCOCCOCCOCCC(=O)Oc1c(F)c(F)cc(F)c1F [Compound E] gave a pKa [2] of 4.67.

With CC1(C)C=C(CS(=O)(=O)O)c2cc3c(c4c2N1CCC4)Oc1c(cc2c4c1CCCN4C(C)(C)CC2CS(=O)(=O)O)C31c2c(Cl)ccc(Cl)c2C(=O)N1NC(=O)CCOCCOCCOCCOCCC(=O)Oc1c(F)c(F)cc(F)c1F (centres unmarked) [Compound B] the pKa [2] was 3.7.

In the case of CC1(C)C=C(CS(=O)(=O)O)c2cc3c(c4c2N1CCC4)Oc1c(cc2c4c1CCCN4C(C)(C)C=C2CS(=O)(=O)O)C31c2c(Cl)ccc(Cl)c2C(=O)N1CCN1CCN(C(=O)CCOCCOCCOCCOCCC(=O)ON2C(=O)CCC2=O)CC1 [Compound A], the “absorbance as share of the expected maximum value (A=0.93)” value ([1]; after 3600 seconds (60 minutes) at pH 3.13) is reported as 5%, the “absorbance at 637 nm” value ([1]; after 3600 seconds (60 minutes) at pH 3.13, 6.6 μM) is reported as 0.05 and the pH response kinetics [1] is reported as “slow”. It also gave a pKa [2] of 5.2.

CC(C)(ON1C(=O)c2c(Cl)ccc(Cl)c2C12c1cc3c4c(c1Oc1c2cc2c5c1CCCN5C(C)(C)C=C2CS(=O)(=O)O)CCCN4C(C)(C)C=C3CS(=O)(=O)O)C(=O)Oc1c(F)c(F)cc(F)c1F [Compound G] showed a pKa [2] of 6.5.

With CC1(C)C=C(CS(=O)(=O)O)c2cc3c(c4c2N1CCC4)Oc1c(cc2c4c1CCCN4C(C)(C)C=C2CS(=O)(=O)O)C31c2c(Cl)ccc(Cl)c2C(=O)N1OCCOCCOCCOCCC(=O)Oc1c(F)c(F)cc(F)c1F [Compound C] the “absorption at 637 nm (A)” value ([1]; immediately after mixing pH 7.4 stock into pH 3.13 buffer, 6.6 μM, maximum, kept constant) was 0.93, the pH response kinetics [1] was “fast” and the “toxicity to labeled cells vs sham labeled control” value (Jurkat cells [4]; Jurkat cells, overnight, PRESTOBLUE) was “little toxicity”. The “turn-on response of labeled cells” value (Jurkat cells [4]; extracellular pH 4.5 vs 7.5, Cy5 channel) was “large fold turn-on response”, the “efferocytosis signal, camptothecin treated vs control labeled Jurkat cells” value (RAW macrophages [5]) was “signal preferentially appearing from the camptothecin treated samples” and the pKa [2] was 4.87. The “phagocytosis signal, CD4 antibody treated vs control labeled Jurkat cells” value (RAW macrophages [6]) was “signal preferentially appearing from the CD4 treated samples”.

With CC1(C)C=C(CS(=O)(=O)O)c2cc3c(c4c2N1CCC4)Oc1c(cc2c4c1CCCN4C(C)(C)CC2CS(=O)(=O)O)C31c2c(Cl)c(Cl)c(Cl)c(Cl)c2C(=O)N1NC(=O)CCOCCOCCOCCOCCC(=O)Oc1c(F)c(F)cc(F)c1F (centres unmarked) [Compound D] the pKa [2] was 4.3.
